Data taken from patent US6395896B2, “Pyridazine derivatives, manufacturing method and related composition” (Shiseido Co., Ltd., priority 1999, dated 2002).

Assay: Colorant stabilization effect (photostabilizer, sunlight exposure)
Set-up: key to Sunlight exposure (80 MJ) Appearance: A: No change; B: No almost change; C: Yes change; key to Sunlight exposure (80 MJ) ΔE: ΔE color difference (Lab) vs. color before sunlight exposure
Description: First of all, the photostabilization effect and appearance change of a composition in each pigment were studied by the following evaluation formulation.
Each test sample was prepared. Observation of appearance change (visual evaluation) and measurement of color difference (ΔE) were carried out in samples exposed to sunlight exposure (around 80 MJ).
Color difference was measured by Lab coordinate system with spectrophotometer. Color difference was calculated on the basis of the color before sunlight exposure. Namely, from measured value (L1,a1,b1) before sunlight exposure, color difference (ΔE) was calculated by following formula.

[1] = Blue No. 1 0.00001 wt %, photostabilizer 0.05 wt %
[2] = Blue No. 1 0.00001 wt %, photostabilizer 0.1 wt %
[3] = Blue No. 1 0.00001 wt %, photostabilizer 0.3 wt %
[4] = Blue No. 1 0.0001 wt %, photostabilizer 0.03 wt %
[5] = Blue No. 1 0.0001 wt %, photostabilizer 0.05 wt %
[6] = Blue No. 1 0.0001 wt %, photostabilizer 0.1 wt %
[7] = Green No. 3 0.00001 wt %, photostabilizer 0.03 wt %
[8] = Green No. 3 0.00001 wt %, photostabilizer 0.1 wt %
[9] = Green No. 3 0.00001 wt %, photostabilizer 0.3 wt %
[10] = Green No. 3 0.0001 wt %, photostabilizer 0.02 wt %
[11] = Green No. 3 0.0001 wt %, photostabilizer 0.05 wt %
[12] = Green No. 3 0.0001 wt %, photostabilizer 0.1 wt %
[13] = Red No. 106 0.00001 wt % + Yellow No. 5 0.0001 wt %, photostabilizer 0.03 wt %
[14] = Red No. 106 0.00001 wt % + Yellow No. 5 0.0001 wt %, photostabilizer 0.05 wt %
[15] = Red No. 106 0.00001 wt % + Yellow No. 5 0.0001 wt %, photostabilizer 0.3 wt %
[16] = Red No. 106 0.00001 wt % + Yellow No. 203 0.0001 wt %, photostabilizer 0.05 wt %
[17] = Red No. 106 0.00001 wt % + Yellow No. 203 0.0001 wt %, photostabilizer 0.1 wt %
[18] = Red No. 106 0.00001 wt % + Yellow No. 203 0.0001 wt %, photostabilizer 0.3 wt %
[19] = Red No. 106 0.00001 wt %, photostabilizer 0.05 wt %
[20] = Red No. 106 0.00001 wt %, photostabilizer 0.1 wt %
[21] = Red No. 106 0.00001 wt %, photostabilizer 0.3 wt %
[22] = Red No. 106 0.0001 wt %, photostabilizer 0.03 wt %
[23] = Red No. 106 0.0001 wt %, photostabilizer 0.05 wt %
[24] = Red No. 106 0.0001 wt %, photostabilizer 0.1 wt %
[25] = Red No. 213 0.00001 wt % + Blue No. 1 0.00001 wt %, photostabilizer 0.03 wt %
[26] = Red No. 213 0.00001 wt % + Blue No. 1 0.00001 wt %, photostabilizer 0.05 wt %
[27] = Red No. 213 0.00001 wt % + Blue No. 1 0.00001 wt %, photostabilizer 0.1 wt %
[28] = Red No. 213 0.00001 wt %, photostabilizer 0.03 wt %
[29] = Red No. 213 0.00001 wt %, photostabilizer 0.1 wt %
[30] = Red No. 213 0.00001 wt %, photostabilizer 0.3 wt %
[31] = Red No. 213 0.0001 wt %, photostabilizer 0.03 wt %
[32] = Red No. 213 0.0001 wt %, photostabilizer 0.05 wt %
[33] = Red No. 213 0.0001 wt %, photostabilizer 0.1 wt %
[34] = Red No. 227 0.00001 wt %, photostabilizer 0.05 wt %
[35] = Red No. 227 0.00001 wt %, photostabilizer 0.1 wt %
[36] = Red No. 227 0.00001 wt %, photostabilizer 0.3 wt %

In the case of Oc1nncc(N2CCOCC2)c1N1CCOCC1 [4,5-Dimorpholino-3-hydroxypyridazine], the “Sunlight exposure (80 MJ) Appearance” value [1] is reported as “A”, the “Sunlight exposure (80 MJ) ΔE” value [1] is reported as 1.00 and the “Sunlight exposure (80 MJ) Appearance” value [2] is reported as “A”. The “Sunlight exposure (80 MJ) ΔE” value [2] was 0.62, the “Sunlight exposure (80 MJ) Appearance” value [3] was “A” and the “Sunlight exposure (80 MJ) ΔE” value [3] was 0.25. The “Sunlight exposure (80 MJ) Appearance” value [4] was “A”, the “Sunlight exposure (80 MJ) ΔE” value [4] was 1.25 and the “Sunlight exposure (80 MJ) Appearance” value [5] was “A”. For the same compound, the “Sunlight exposure (80 MJ) ΔE” value [5] was 1.11, the “Sunlight exposure (80 MJ) Appearance” value [6] was “A” and the “Sunlight exposure (80 MJ) ΔE” value [6] was 0.70. For the same compound, the “Sunlight exposure (80 MJ) Appearance” value [7] was “A”, the “Sunlight exposure (80 MJ) ΔE” value [7] was 0.56 and the “Sunlight exposure (80 MJ) Appearance” value [8] was “A”. For the same compound, the “Sunlight exposure (80 MJ) ΔE” value [8] was 0.08, the “Sunlight exposure (80 MJ) Appearance” value [9] was “A” and the “Sunlight exposure (80 MJ) ΔE” value [9] was 0.02. The “Sunlight exposure (80 MJ) Appearance” value [10] was “A”, the “Sunlight exposure (80 MJ) ΔE” value [10] was 0.75 and the “Sunlight exposure (80 MJ) Appearance” value [11] was “A”. The “Sunlight exposure (80 MJ) ΔE” value [11] was 0.31, the “Sunlight exposure (80 MJ) Appearance” value [12] was “A” and the “Sunlight exposure (80 MJ) ΔE” value [12] was 0.06. For the same compound, the “Sunlight exposure (80 MJ) Appearance” value [13] was “A”, the “Sunlight exposure (80 MJ) ΔE” value [13] was 0.97 and the “Sunlight exposure (80 MJ) Appearance” value [14] was “A”. For the same compound, the “Sunlight exposure (80 MJ) ΔE” value [14] was 0.55, the “Sunlight exposure (80 MJ) Appearance” value [15] was “A” and the “Sunlight exposure (80 MJ) ΔE” value [15] was 0.12. For the same compound, the “Sunlight exposure (80 MJ) Appearance” value [16] was “A”, the “Sunlight exposure (80 MJ) ΔE” value [16] was 0.77 and the “Sunlight exposure (80 MJ) Appearance” value [17] was “A”. For the same compound, the “Sunlight exposure (80 MJ) ΔE” value [17] was 0.25, the “Sunlight exposure (80 MJ) Appearance” value [18] was “A” and the “Sunlight exposure (80 MJ) ΔE” value [18] was 0.11. For the same compound, the “Sunlight exposure (80 MJ) Appearance” value [19] was “A”, the “Sunlight exposure (80 MJ) ΔE” value [19] was 1.01 and the “Sunlight exposure (80 MJ) Appearance” value [20] was “A”. For the same compound, the “Sunlight exposure (80 MJ) ΔE” value [20] was 0.55, the “Sunlight exposure (80 MJ) Appearance” value [21] was “A” and the “Sunlight exposure (80 MJ) ΔE” value [21] was 0.12. For the same compound, the “Sunlight exposure (80 MJ) Appearance” value [22] was “A”, the “Sunlight exposure (80 MJ) ΔE” value [22] was 0.95 and the “Sunlight exposure (80 MJ) Appearance” value [23] was “A”. The “Sunlight exposure (80 MJ) ΔE” value [23] was 0.82, the “Sunlight exposure (80 MJ) Appearance” value [24] was “A” and the “Sunlight exposure (80 MJ) ΔE” value [24] was 0.43. For the same compound, the “Sunlight exposure (80 MJ) Appearance” value [25] was “A”, the “Sunlight exposure (80 MJ) ΔE” value [25] was 1.21 and the “Sunlight exposure (80 MJ) Appearance” value [26] was “A”. The “Sunlight exposure (80 MJ) ΔE” value [26] was 0.97, the “Sunlight exposure (80 MJ) Appearance” value [27] was “A” and the “Sunlight exposure (80 MJ) ΔE” value [27] was 0.73. The “Sunlight exposure (80 MJ) Appearance” value [28] was “B”, the “Sunlight exposure (80 MJ) ΔE” value [28] was 1.24 and the “Sunlight exposure (80 MJ) Appearance” value [29] was “A”. The “Sunlight exposure (80 MJ) ΔE” value [29] was 0.45, the “Sunlight exposure (80 MJ) Appearance” value [30] was “A” and the “Sunlight exposure (80 MJ) ΔE” value [30] was 0.12. The “Sunlight exposure (80 MJ) Appearance” value [31] was “B”, the “Sunlight exposure (80 MJ) ΔE” value [31] was 1.11 and the “Sunlight exposure (80 MJ) Appearance” value [32] was “A”. For the same compound, the “Sunlight exposure (80 MJ) ΔE” value [32] was 0.78, the “Sunlight exposure (80 MJ) Appearance” value [33] was “A” and the “Sunlight exposure (80 MJ) ΔE” value [33] was 0.32. For the same compound, the “Sunlight exposure (80 MJ) Appearance” value [34] was “A”, the “Sunlight exposure (80 MJ) ΔE” value [34] was 0.69 and the “Sunlight exposure (80 MJ) Appearance” value [35] was “A”. The “Sunlight exposure (80 MJ) ΔE” value [35] was 0.32, the “Sunlight exposure (80 MJ) Appearance” value [36] was “A” and the “Sunlight exposure (80 MJ) ΔE” value [36] was 0.11. The “Sunlight exposure (80 MJ) Appearance” value (Red No. 227 0.0001 wt % + Yellow No. 5 0.0001 wt %, photostabilizer 0.03 wt %) was “A”.
